Source: patent US20250051316A1, “2-(ARYL-2-YL) […] […], PREPARATION METHOD THEREFOR AND APPLICATION THEREOF” (SHANGHAI HANSOH BIOMEDICAL CO., LTD., priority 2021, published 2025)

Assays:
TAAR1 receptor = target: T1, TAAR1 receptor (Homo sapiens, UniProt Q96RJ0); assay: Effect on cAMP content in cells which stably express TAAR1 receptor; assay type: cell-based
T1 construct: expressed in transfected cells
T1 sequence (Q96RJ0 1-339): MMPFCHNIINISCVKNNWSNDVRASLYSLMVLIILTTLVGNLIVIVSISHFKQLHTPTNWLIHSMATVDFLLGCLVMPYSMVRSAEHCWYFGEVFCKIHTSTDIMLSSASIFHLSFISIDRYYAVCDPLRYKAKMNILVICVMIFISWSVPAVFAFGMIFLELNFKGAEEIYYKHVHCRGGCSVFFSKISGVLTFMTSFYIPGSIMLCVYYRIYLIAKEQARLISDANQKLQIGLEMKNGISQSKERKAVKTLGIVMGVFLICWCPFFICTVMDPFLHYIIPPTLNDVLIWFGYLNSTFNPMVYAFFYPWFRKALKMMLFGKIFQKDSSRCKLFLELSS
Experimental: Test Example1. Determination of the effect of the present compound on cAMP content in cells which stably express TAAR1 receptor
Determination of the activation effect of compounds on TAAR1 receptors.
• 1) Preparation of experimental buffer: 1*HBSS+20 mM HEPES+0.1% BSA+500 μM IBMX. • 2) Complete medium: • Ham's F12K+10% Fetal Bovine Serum+1*Penicillin-Streptomycin+200 μg/mL Hygromycin B for CHO • DMEM+10% Fetal Bovine Serum+1*Penicillin-Streptomycin+200 μg/mL Hygromycin B for HEK293 • 3) TAAR1 cell line was cultured in complete medium at 37° C. and 5% CO2; After TrypLE digestion, the cells were resuspended in the experimental buffer and seeded into a 384 cell culture plate with a density of 8000 cells/15 ul/well. • 4) The compound was diluted with experimental buffer and added 5 μL to each well to culture at 37° C. for 30 minutes. • 5) cAMP-d2 and Anti cAMP Eu3+ were freeze thaw, and diluted 20 times with lysis buffer; 10 μL cAMP-d2 was added to the experimental well, and then 10 μL Anti cAMP Eu3+ was added into the experimental well; the reaction plate was centrifuged at 200 g for 30 seconds at room temperature, and stand at 25° C. for 1 hour; data was collected by Envision.
[formula] • 5) EC50 of compounds was calculated using GraphPad nonlinear fitting formula:
[formula] • X: Log value of the compound concentration; Y: Activation %

[1] = Pharmacokinetic assay of Balb/c mice, plasma and brain, oral; assay type: in vivo; conditions: male, mouse, p.o. 5 mg/kg
Experimental: Test Example 3. Pharmacokinetic Assay of Balb/c Mice
Balb/c Mice were used as test animals. The pharmacokinetic behavior of the compounds of the present invention was studied in the plasma and brain of mice administered orally at the dose of 5 mg/kg.
Balb/c Mice, male, Shanghai Jiesijie Experimental Animal Co., Ltd., animal production license number (SCXK (Shanghai) 2013-0006 N0.311620400001794).
After fasting overnight, 24 male Balb/c mice were administered p.o. at a dose of 5 mg/kg and an administration volume of 10 mL/kg, respectively.
Drug formulation for oral administration: 0.5% CMC-Na (1% Tween 80).
After CO2 euthanasia of experimental animals, heart blood and brain tissue were collected at 0.25 h, 0.5 h, 1 h, 2 h, 4 h, 6 h, 8 h, and 24 h after administration. The blood was placed in EDTA-2K tubes and centrifuged at 4° C. and 6000 rpm for 6 minutes to separate plasma. The brain tissue was washed with pre-cooled PBS, dried, weighed, and stored at −80° C. The animals were feed 4 hours after administration.
1) 160 μL of acetonitrile was added to 40 μL of the plasma sample for precipitation, and then the mixture was centrifuged at 3500×g for 5-20 min.
2) 100 μL of the supernatant was taken to analyze the concentration of the test compound by LC/MS/MS.
• Liquid chromatography condition: Shimadzu LC-20AD pump • Mass spectrometry condition: AB Sciex API 4000 mass spectrometer • Chromatographic column: phenomenex Gemiu 5 μm C18 50×4.6 mm • Mobile phase: Eluent A was 0.10% formic acid in water, and Eluent B was acetonitrile • Flow rate: […] • Elution time: 0-4.0 minutes, the eluent is as follows:
The main pharmacokinetic parameters were calculated using WinNonlin8.1, and the results of the pharmacokinetic experiments in mouse are shown in the table below.

[2] = system: C57BL/6 mice, high spontaneous activity induced by phencyclidine (PCP); assay: High spontaneous activity model of mice induced by phencyclidine (PCP); assay type: in vivo; conditions: 60 minutes after modeling
Excerpt: Test Example 2. Pharmacodynamic Evaluation of the Present Compounds in Mice Model of High Spontaneous Activity Induced by Phencyclidine (PCP)
The purpose of the experiment is to evaluate the efficacy of compounds in a high spontaneous activity model of C57BL/6 mice induced by phencyclidine (PCP) using the spontaneous activity method.
C57BL/6 mice, provided by Shanghai Lingchang Biotechnology Co., Ltd., male, 6-8 weeks, 20-24 g, 36 mice.
The day before the experimental test, the animals were placed in the laboratory and acclimated for 8 hours.
On the day of adaptation, the animals were randomly grouped according to their weight.
The animals were weithed and treated with solvent control (20% HP-3-CD), compounds of the present invention (oral administration) respectively. 30 minutes later, modeling (intraperitoneal administration) was performed, and the animals were given physiological saline or phencyclidine, with dosage volume of 10 mL/kg.
After the administration, the animals were placed in observation box and the spontaneous activity was detected for 30 minutes. The moving distance (meters) of the animals in the observation box was counted every 5 minutes.
After 30 minutes, the animals were taken out for modeling and then placed in the observation box to test their spontaneous activity for 60 minutes. The moving distance (meters) of the animals in the observation box was counted every 5 minutes.
Excel software was used to collect data. A Two-Way ANOVA or One-Way ANOVA was conducted used Prism (Graph pad software, Inc.) software. p<0.05 was considered significant difference.

Clc1cccc(C2CNCCO2)c1 (single isomer, unassigned) [Example 46-1, 2-(3-Chlorophenyl)morpholine]
EC50 (TAAR1 receptor): 17.7 nM

[2H]c1ccc([C@H]2CNCCO2)nc1 (single isomer, unassigned) [Example 6-2, 2-(pyridin-2-yl-5-d)morpholine]
AUC(0-t) ([1]; Brain): 6480 ng·h/mL | Cmax ([1]; Brain): 3030 ng/mL | Tmax ([1]; Brain): 15 min | half-life ([1]; Brain): 48 min | AUC(0-t) ([1]; Plasma): 4300 ng·h/mL | Cmax ([1]; Plasma): 2050 ng/mL | Tmax ([1]; Plasma): 15 min | half-life ([1]; Plasma): 48 min | EC50 (TAAR1 receptor): 3.4 nM

[2H]C1([2H])COC(c2cc(C)ccn2)CN1 (single isomer, unassigned) [Example 16-1, 2-(4-Methylpyridin-2-yl)morpholin-5,5-d2]
AUC(0-t) ([1]; Brain): 5630 ng·h/mL | Cmax ([1]; Brain): 1740 ng/mL | Tmax ([1]; Brain): 15 min | half-life ([1]; Brain): 174 min | AUC(0-t) ([1]; Plasma): 2270 ng·h/mL | Cmax ([1]; Plasma): 890 ng/mL | Tmax ([1]; Plasma): 15 min | half-life ([1]; Plasma): 114 min | EC50 (TAAR1 receptor): 21.3 nM

Clc1ccc(C2CNCCO2)nc1 (single isomer, unassigned) [Example 25-2]
EC50 (TAAR1 receptor): 207 nM

c1ccc(C2CNCCO2)nc1 (stereo not shown) [Compound A, 2-(Pyridin-2-yl)morpholine]
Total distance (m, Mean ± SEM) 60 minutes ([2]; compound 6 mg/kg oral + PCP 5 mg/kg i.p.): 113.09 ± 12.69 m | EC50 (TAAR1 receptor): 7.1 nM

Cc1cccc([C@@H]2CNCCO2)c1 [Example 47-2]
EC50 (TAAR1 receptor): 11.5 nM

Fc1cccc([C@@H]2CNCCO2)c1 [Example 48-1]
EC50 (TAAR1 receptor): 2.1 nM

[2H]c1ccnc([C@@H]2CNCCO2)c1 (single isomer, unassigned) [Example 7-2, 2-(pyridin-2-yl-4-d)morpholine]
AUC(0-t) ([1]; Brain): 4410 ng·h/mL | Cmax ([1]; Brain): 2500 ng/mL | Tmax ([1]; Brain): 30 min | half-life ([1]; Brain): 54 min | AUC(0-t) ([1]; Plasma): 2840 ng·h/mL | Cmax ([1]; Plasma): 1560 ng/mL | Tmax ([1]; Plasma): 30 min | half-life ([1]; Plasma): 48 min | EC50 (TAAR1 receptor): 5.9 nM

Cc1nc([C@@H]2CNCCO2)ccc1F (single isomer, unassigned) [Example 19-2, 2-(5-fluoro-6-methyl-2-pyridyl)morpholine]
AUC(0-t) ([1]; Brain): 8640 ng·h/mL | Cmax ([1]; Brain): 2510 ng/mL | Tmax ([1]; Brain): 120 min | half-life ([1]; Brain): 66 min | AUC(0-t) ([1]; Plasma): 2760 ng·h/mL | Cmax ([1]; Plasma): 705 ng/mL | Tmax ([1]; Plasma): 120 min | half-life ([1]; Plasma): 222 min | EC50 (TAAR1 receptor): 13.6 nM

[2H]c1ccc(C2CNCCO2)cc1 (single isomer, unassigned) [Example 28-2, 2-(phenyl-4-d)morpholine]
Total distance (m, Mean ± SEM) 60 minutes ([2]; compound 3 mg/kg oral + PCP 5 mg/kg i.p.): 113.09 ± 12.69 m | AUC(0-t) ([1]; Brain): 3980 ng·h/mL | Cmax ([1]; Brain): 2110 ng/mL | Tmax ([1]; Brain): 15 min | half-life ([1]; Brain): 78 min | AUC(0-t) ([1]; Plasma): 2820 ng·h/mL | Cmax ([1]; Plasma): 1340 ng/mL | Tmax ([1]; Plasma): 15 min | half-life ([1]; Plasma): 84 min | EC50 (TAAR1 receptor): 3 nM
